{"source": "patent US20230146455A1", "about": "“TREATMENT OF INFLAMMATORY DISEASES WITH PEPTIDES AND PHARMACEUTICAL COMPOSITIONS” (Yuyu Pharma, Inc., priority 2020, published 2023)", "key": {"TNF-alpha": {"system": "TNF-alpha", "assay": "Example 8 main study Luminex, LPS hPBMCs: TNF-alpha", "assay_type": "cell-based, human", "settings": "for TNF-alpha Concentration: individual replicates; for TNF-alpha Concentration (pg/ml), Mean: mean of replicates", "experimental": "(§1) Human PBMCs were pretreated with YY-101, YDE-011, YDE-043 or reference compound; Xiidra® at various concentration (ranging from […] to 500 nM) for 2 h before stimulation. An equal volume of 0.5% DMSO was used as a vehicle control. Then, the cells were treated with LPS at 5 ug/ml, which was selected based on the pilot study. The supernatants from treated cells were harvested at 24 h and placed in a 96 well for Luminex cytokine & chemokine profiling using a Luminex 200 multiplex assay (Luminex; R&D system, USA).\n(§2) The main study arm with triplicate wells per group in a 24-well plate: • 1. Blank • 2. PBMC: 0.5% DMSO • 3. PBMC+LPS (5 ug/ml) • 4. PBMC+YY-101 500 nM • 5. PBMC+YY-101 50 nM • 6. PBMC+YY-101 5 nM • 7. PBMC+YY-101 0.5 nM • 8. PBMC+LPS (5 ug/ml)+Xiidra® 500 nM • 9. PBMC+LPS (5 ug/ml)+Xiidra® 50 nM • 10. PBMC+LPS (5 ug/ml)+Xiidra® 5 nM • 11. PBMC+LPS (5 ug/ml)+Xiidra® 0.5 nM • 12. PBMC+LPS (5 ug/ml)+Xiidra® 0.05 nM • 13. PBMC+LPS (5 ug/ml)+Xiidra® 0.005 nM • 14. PBMC+LPS (5 ug/ml)+YY-101 500 nM • 15. PBMC+LPS (5 ug/ml)+YY-101 50 nM • 16. PBMC+LPS (5 ug/ml)+YY-101 5 nM • 17. PBMC+LPS (5 ug/ml)+YY-101 0.5 nM • 18. PBMC+LPS (5 ug/ml)+YY-101 0.05 nM • 19. PBMC+LPS (5 ug/ml)+YY-101 0.005 nM • 20. PBMC+LPS (5 ug/ml)+YDE-011 500 nM • 21. PBMC+LPS (5 ug/ml)+YDE-011 50 nM • 22. PBMC+LPS (5 ug/ml)+YDE-011 5 nM • 23. PBMC+LPS (5 ug/ml)+YDE-011 0.5 nM • 24. PBMC+LPS (5 ug/ml)+YDE-011 0.05 nM • 25. PBMC+LPS (5 ug/ml)+YDE-011 0.005 nM • 26. PBMC+LPS (5 ug/ml)+YDE-043 500 nM • 27. PBMC+LPS (5 ug/ml)+YDE-043 50 nM • 28. PBMC+LPS (5 ug/ml)+YDE-043 5 nM • 29. PBMC+LPS (5 ug/ml)+YDE-043 0.5 nM • 30. PBMC+LPS (5 ug/ml)+YDE-043 0.05 nM • 31. PBMC+LPS (5 ug/ml)+YDE-043 0.005 nM\n(§3) Multiplex assay was used to measure 30 cytokines and chemokines. The 1:200 diluted cell supernatant and serial dilution of the standard were dispensed into a 96 well plate at 50 ul/well. Then, the pre-mixed cocktail of antibody-coated magnetic beads was dispensed at 50 ul/well and incubated at room temperature for 2 h in a horizontal orbital microplate shaker at 800±500 rpm. The beads were washed using a magnetic device to prevent loss. The biotin-antibody was dispensed in 50 ul of each well and incubated at room temperature for 1 h in a shaker at 800±500 rpm. After washing, streptavidin-PE was added at 50 ul/well and incubated at room temperature for 30 min in a shaker under the same conditions. Finally, after washing, wash buffer (100 ul/well) was added to the plate and incubated in a shaker for 2 min. The Luminex™ 200 setting were set according to the manufacturer's protocol. The data was calculated with a standard five-parameter logistic nonlinear regression analysis of the data (xPonent software 4.2, USA). Results were presented as concentration (ng/ml or pg/ml)."}, "IL-2": {"system": "IL-2", "assay": "Example 8 main study Luminex, LPS hPBMCs: IL-2", "assay_type": "cell-based, human", "settings": "for IL-2 Concentration, individual wells / IL-2 MFI, individual wells / IL-2 MFI, Mean / IL-2 Concentration, Mean: 24 h; for IL-2 MFI, Mean: LPS alone Mean 80.5; for IL-2 Concentration, Mean: LPS alone Mean 3988.7", "experimental": "as §1, §2, §3"}, "[1]": {"settings": "PBMC + LPS(5 ug/ml) + test article 0.005 nM"}, "[2]": {"settings": "PBMC + LPS(5 ug/ml) + test article 0.05 nM"}, "[3]": {"settings": "PBMC + LPS(5 ug/ml) + test article 0.5 nM"}, "[4]": {"settings": "PBMC + LPS(5 ug/ml) + test article 5 nM"}, "[5]": {"settings": "PBMC + LPS(5 ug/ml) + test article 50 nM"}, "[6]": {"settings": "PBMC + LPS(5 ug/ml) + test article 500 nM"}, "[7]": {"settings": "at as low as 5 μM, LPS 5 ug/mL 24 hrs"}, "[8]": {"settings": "PBMC + LPS(5 ug/ml) + compound 0.005 nM"}, "[9]": {"settings": "PBMC + LPS(5 ug/ml) + compound 0.05 nM"}, "[10]": {"settings": "PBMC + LPS(5 ug/ml) + compound 0.5 nM"}, "[11]": {"settings": "PBMC + LPS(5 ug/ml) + compound 5 nM"}, "[12]": {"settings": "PBMC + LPS(5 ug/ml) + compound 50 nM"}, "[13]": {"settings": "PBMC + LPS(5 ug/ml) + compound 500 nM"}}, "note": "Where “and” joins values, the source holds several entries; their conditions need not be identical. Identical values can stand only once. Where a SMILES comes first, the peptide text is derived from it. [ ]: non-standard residue; d: D form. Hyp = O=C(O)[C@@H]1C[C@@H](O)CN1"}
{"smiles": "CC(C)C[C@H](NC(=O)[C@H](CCC(N)=O)NC(=O)CNC(=O)[C@@H]1C[C@@H](O)CN1)C(=O)NCC(=O)O", "note": "[YDE-043] (H-[Hyp]GQLG-OH; N-terminus and C-terminus assumed)", "values": [{"measurement": "TNF-alpha Concentration", "setting": "TNF-alpha; [1]", "result": "2052.5 pg/mL and 1797.0 pg/mL and 2306.2 pg/mL"}, {"measurement": "TNF-alpha Concentration (pg/ml), Mean", "setting": "TNF-alpha; [1]", "result": 2051.9, "unit": "pg/mL"}, {"measurement": "TNF-alpha Concentration", "setting": "TNF-alpha; [2]", "result": "1181.1 pg/mL and 1539.4 pg/mL and 1474.6 pg/mL"}, {"measurement": "TNF-alpha Concentration (pg/ml), Mean", "setting": "TNF-alpha; [2]", "result": 1398.4, "unit": "pg/mL"}, {"measurement": "TNF-alpha Concentration", "setting": "TNF-alpha; [3]", "result": "1764.9 pg/ml and 1409.7 pg/ml (2×)"}, {"measurement": "TNF-alpha Concentration (pg/ml), Mean", "setting": "TNF-alpha; [3]", "result": 1528.1, "unit": "pg/mL"}, {"measurement": "TNF-alpha Concentration", "setting": "TNF-alpha; [4]", "result": "1442.2 pg/mL and 2052.5 pg/mL and 1474.6 pg/mL"}, {"measurement": "TNF-alpha Concentration (pg/ml), Mean", "setting": "TNF-alpha; [4]", "result": 1656.4, "unit": "pg/mL"}, {"measurement": "TNF-alpha Concentration", "setting": "TNF-alpha; [5]", "result": "2020.6 pg/mL and 1797.0 pg/mL and 1474.6 pg/mL"}, {"measurement": "TNF-alpha Concentration (pg/ml), Mean", "setting": "TNF-alpha; [5]", "result": 1764.1, "unit": "pg/mL"}, {"measurement": "TNF-alpha Concentration", "setting": "TNF-alpha; [6]", "result": "1604.0 pg/mL and 1115.3 pg/mL and 1344.6 pg/mL"}, {"measurement": "TNF-alpha Concentration (pg/ml), Mean", "setting": "TNF-alpha; [6]", "result": 1354.6, "unit": "pg/mL"}, {"measurement": "LPS-induced TNF-α (in words)", "setting": "TNF-alpha; [7]", "result": "significantly reduced"}, {"measurement": "IL-2 Concentration, individual wells", "setting": "IL-2; [8]", "result": "2239.1 pg/mL and 2317.3 pg/mL and 3058.1 pg/mL"}, {"measurement": "IL-2 MFI, individual wells", "setting": "IL-2; [8]", "result": "58.0 and 59.0 and 68.5"}, {"measurement": "IL-2 MFI, Mean", "setting": "IL-2; [8]", "result": 61.8}, {"measurement": "IL-2 Concentration, Mean", "setting": "IL-2; [8]", "result": 2538.2, "unit": "pg/mL"}, {"measurement": "IL-2 Concentration, individual wells", "setting": "IL-2; [9]", "result": "2004.2 pg/ml and 2239.1 pg/ml (2×)"}, {"measurement": "IL-2 MFI, individual wells", "setting": "IL-2; [9]", "result": "55.0 and 58.0 (2×)"}, {"measurement": "IL-2 MFI, Mean", "setting": "IL-2; [9]", "result": 57.0}, {"measurement": "IL-2 Concentration, Mean", "setting": "IL-2; [9]", "result": 2160.8, "unit": "pg/mL"}, {"measurement": "IL-2 Concentration, individual wells", "setting": "IL-2; [10]", "result": "2082.5 pg/mL and 2317.3 pg/mL and 2121.7 pg/mL"}, {"measurement": "IL-2 MFI, individual wells", "setting": "IL-2; [10]", "result": "56.0 and 59.0 and 56.5"}, {"measurement": "IL-2 MFI, Mean", "setting": "IL-2; [10]", "result": 57.2}, {"measurement": "IL-2 Concentration, Mean", "setting": "IL-2; [10]", "result": 2173.8, "unit": "pg/mL"}, {"measurement": "IL-2 Concentration, individual wells", "setting": "IL-2; [11]", "result": "2785.6 pg/mL and 2395.5 pg/mL and 2473.6 pg/mL"}, {"measurement": "IL-2 MFI, individual wells", "setting": "IL-2; [11]", "result": "65.0 and 60.0 and 61.0"}, {"measurement": "IL-2 MFI, Mean", "setting": "IL-2; [11]", "result": 62.0}, {"measurement": "IL-2 Concentration, Mean", "setting": "IL-2; [11]", "result": 2551.6, "unit": "pg/mL"}, {"measurement": "IL-2 Concentration, individual wells", "setting": "IL-2; [12]", "result": "2551.7 pg/mL and 2395.5 pg/mL and 2239.1 pg/mL"}, {"measurement": "IL-2 MFI, individual wells", "setting": "IL-2; [12]", "result": "62.0 and 60.0 and 58.0"}, {"measurement": "IL-2 MFI, Mean", "setting": "IL-2; [12]", "result": 60.0}, {"measurement": "IL-2 Concentration, Mean", "setting": "IL-2; [12]", "result": 2395.4, "unit": "pg/mL"}, {"measurement": "IL-2 Concentration, individual wells", "setting": "IL-2; [13]", "result": "2004.2 pg/mL and 2082.5 pg/mL and 2239.1 pg/mL"}, {"measurement": "IL-2 MFI, individual wells", "setting": "IL-2; [13]", "result": "55.0 and 56.0 and 58.0"}, {"measurement": "IL-2 MFI, Mean", "setting": "IL-2; [13]", "result": 56.3}, {"measurement": "IL-2 Concentration, Mean", "setting": "IL-2; [13]", "result": 2108.6, "unit": "pg/mL"}, {"measurement": "LPS-induced IL-2 (in words)", "setting": "IL-2; [7]", "result": "significantly reduced"}]}
